US8987309B2, “Compounds, pharmaceutical compositions and methods of use of 2-aryl pyridylazoles” (The Translational Genomics Research Institute, priority 2009, dated 2015)

Columns and labels:
A549 = experiment: IC50 in tumor cell lines (A549); assay type: cell-based; settings: lung tumor cell line A549
Protocol: (§1) Cytotoxicity Assays. Cytotoxicity assays in the mechanism of action studies were performed according to Mosmann (1983), wherein the activity of mitochondrial reductases were measured using 3-(4,5-dimethylthiozol-3-yl)-2,5-diphenyltetrozolium bromide dye. In brief, cells were seeded in 96-well plates and incubated for various times at 37° C. Inhibition of cell growth was measured by adding 3-(4,5-dimethylthiozol-3-yl)-2,5-diphenyltetrozolium bromide dye, and after an additional 4 h of incubation at 37° C., the 96-well plates were centrifuged, and the culture supernatant was removed. DMSO was added to each well to solubilize the formazan crystals, and the optical density was read at 540 nm on a Quant Spectrophotometer (BioTek Instruments, Winooski, Vt.). Cell growth inhibition data are expressed as percentage of survival compared with untreated cells. The IC50 is defined as the drug concentration required to produce 50% growth inhibition. Results are mean S.E.M. (n 3).

TrkB [1] = biological target: T1, TrkB (Homo sapiens, UniProt Q16620); experiment: Follow-up kinase screening and IC50 (SignalChem), TrkB; assay type: biochemical; parameters: assay run by SignalChem Pharmaceuticals, Inc. (Richmond, BC, Canada)
H460 = experiment: IC50 in tumor cell lines (H460); assay type: cell-based; settings: lung tumor cell line H460
Protocol: as §1

Caki-1 = experiment: IC50 in tumor cell lines (Caki-1); assay type: cell-based; settings: Table 2; kidney tumor cell line Caki-1
Protocol: as §1

[2] = Storage stability by LC-MS; assay type: physicochemical
Protocol: Stability Studies. LC-MS was used to evaluate the stability of DPC-046 kept at −20° C. or at 22° C., unprotected from light. After 2 years of storage, there was a measurable (8.6%) loss of parent compound when stored at −20° C. in the dark and a 43.6% loss at 22° C. in light.

TrkB [3] = biological target: T1, TrkB; experiment: Initial kinase screening (Amphora), TrkB; assay type: biochemical; parameters: assay run by Amphora Discovery Corporation (Durham, N.C.); settings: 10 μM compound
Protocol: (§2) Kinase Screening. Initial kinase screening was performed by Amphora Discovery Corporation (Durham, N.C.).

A498 = experiment: IC50 in tumor cell lines (A498); assay type: cell-based; settings: Table 2; kidney tumor cell line A498
Protocol: as §1

MDA231 = experiment: IC50 in tumor cell lines (MDA231); assay type: cell-based; settings: Table 2; breast tumor cell line MDA231
Protocol: as §1

PC3 = experiment: IC50 in tumor cell lines (PC3); assay type: cell-based; settings: prostate tumor cell line PC3
Protocol: as §1

SK-OV-3 = experiment: IC50 in tumor cell lines (SK-OV-3); assay type: cell-based; settings: Table 2; ovarian tumor cell line SK-OV-3
Protocol: as §1

OVCAR3 = experiment: IC50 in tumor cell lines (OVCAR3); assay type: cell-based; settings: Table 2; ovarian tumor cell line OVCAR3
Protocol: as §1

BxPC3 DPC-4(−/−) cells [4] = experiment: Measurement of apoptosis and necrosis (Annexin V/PI); assay type: cell-based, Human; settings: 24 to 72 h, highest concentration 1500 nM
Protocol: Measurement of Apoptosis and Necrosis. Apoptosis and necrosis after DPC-046 treatment was measured at 24 to 72 h by flow cytometry (Vermes et al., 1995) using Annexin V-Alexa Fluor 488 (Invitrogen) and propidium iodide (BioVision, Mountain View, Calif.). Because of the greater photostability of Alexa Fluor 488 over fluorescein isothiocyanate, we substituted Alexa Fluor 488-labeled Annexin V for fluorescein isothiocyanate-labeled Annexin V. Apoptosis was measured by positive Annexin V staining, indicating the translocation of phosphatidylserine on the cell membrane of apoptotic cells, whereas necrosis was measured by dual labeling of Annexin V and propidium iodide of necrotic cells. Unstained cells were deemed alive. Fluorescence of Annexin V-Alexa Fluor 488 and PI was measured on FL1 and FL2, respectively, on a BD Biosciences FACScan using CellQuest Pro software (BD Biosciences). Data are mean S.E.M. (n 3).
(§3) Mean±S.E.M., n=3. […] Mean±S.E.M., n=3. […] Mean tumor burden is shown.

PIM-1 = PIM-1 (Homo sapiens, UniProt P11309); experiment: Initial kinase screening (Amphora), PIM-1; assay type: biochemical; parameters: assay run by Amphora Discovery Corporation (Durham, N.C.); settings: 10 μM compound
Protocol: as §2

[5] = Plasma protein binding (rapid equilibrium dialysis), human plasma; assay type: in vitro ADME; settings: plasma concentration of 3.27 μM
Protocol: Plasma Protein Binding. Plasma protein binding of DPC-046 was determined in human and mouse plasma using rapid equilibrium dialysis (RED) devices manufactured by Thermo Fisher Scientific. Plasma pH was adjusted to 7.4 and spiked with DPC-046 to a final plasma concentration of 1 μg/ml. Aliquots (500 μl) of the spiked plasma were placed into the sample chamber, and 750 μl of phosphate-buffered saline were placed into the adjacent chamber. Triplicate samples were loaded into the RED devices. The RED devices were incubated at 37° C. on an orbital shaker operating at 100 rpm for 24 h. […] After the incubation, aliquots of plasma and buffer were removed for the analysis of DPC-046 concentration by LC-MS-MS as described above.

IRAK-4 = biological target: T2, IRAK-4 (Homo sapiens, UniProt Q9NWZ3); experiment: Follow-up kinase screening and IC50 (SignalChem), IRAK-4; assay type: biochemical
T2 construct: assay run by SignalChem Pharmaceuticals, Inc. (Richmond, BC, Canada)

BxPC3 DPC-4(−/−) cells [6] = experiment: Measurement of cell cycle (PI flow cytometry); assay type: cell-based, Human; settings: 24 to 72 h
Protocol: Measurement of Cell Cycle. The percentage of cells in different cell cycle phases of division was measured by flow cytometry (Darzynkiewicz et al., 1996) using propidium iodide (PI) (Sigma-Aldrich). In brief, cells were treated with PC-046 for 24 to 72 h, fixed with 70% ethanol overnight, and then stained with 40 µg/ml PI and 0.5 mg/ml RNase A for 30 min at 37° C. PI fluorescence was measured on a FACScan (BD Biosciences, San Jose, Calif.) and analyzed using Mod-Fit (Verify Software, Topsham, Me.). Data are mean S.E.M. (n 3).
as §3

[7] = 25 μM DPC-046, follow-up screen
[8] = highest concentration tested (50 μM)

T1 sequence (Q16620 32-822): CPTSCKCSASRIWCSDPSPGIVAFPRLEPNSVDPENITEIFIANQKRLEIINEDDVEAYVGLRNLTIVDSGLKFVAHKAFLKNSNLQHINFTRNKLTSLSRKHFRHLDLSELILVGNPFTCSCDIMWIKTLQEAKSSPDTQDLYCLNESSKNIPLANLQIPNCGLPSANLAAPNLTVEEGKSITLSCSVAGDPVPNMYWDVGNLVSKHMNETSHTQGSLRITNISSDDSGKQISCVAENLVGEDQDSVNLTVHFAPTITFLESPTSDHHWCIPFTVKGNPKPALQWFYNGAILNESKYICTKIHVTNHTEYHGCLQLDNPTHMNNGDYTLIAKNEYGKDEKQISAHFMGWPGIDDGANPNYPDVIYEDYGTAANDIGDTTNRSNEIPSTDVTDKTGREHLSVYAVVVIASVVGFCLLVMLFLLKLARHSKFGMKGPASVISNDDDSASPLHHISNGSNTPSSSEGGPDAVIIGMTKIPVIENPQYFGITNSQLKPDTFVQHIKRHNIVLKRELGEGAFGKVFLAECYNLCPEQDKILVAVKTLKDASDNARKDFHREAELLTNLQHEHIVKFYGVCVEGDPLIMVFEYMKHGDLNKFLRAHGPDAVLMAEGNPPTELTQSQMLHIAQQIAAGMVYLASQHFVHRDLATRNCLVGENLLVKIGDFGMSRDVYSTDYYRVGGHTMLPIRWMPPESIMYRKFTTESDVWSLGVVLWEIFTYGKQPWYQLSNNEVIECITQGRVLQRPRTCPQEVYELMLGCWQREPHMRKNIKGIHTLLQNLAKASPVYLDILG
T2 sequence (Q9NWZ3 whole entry): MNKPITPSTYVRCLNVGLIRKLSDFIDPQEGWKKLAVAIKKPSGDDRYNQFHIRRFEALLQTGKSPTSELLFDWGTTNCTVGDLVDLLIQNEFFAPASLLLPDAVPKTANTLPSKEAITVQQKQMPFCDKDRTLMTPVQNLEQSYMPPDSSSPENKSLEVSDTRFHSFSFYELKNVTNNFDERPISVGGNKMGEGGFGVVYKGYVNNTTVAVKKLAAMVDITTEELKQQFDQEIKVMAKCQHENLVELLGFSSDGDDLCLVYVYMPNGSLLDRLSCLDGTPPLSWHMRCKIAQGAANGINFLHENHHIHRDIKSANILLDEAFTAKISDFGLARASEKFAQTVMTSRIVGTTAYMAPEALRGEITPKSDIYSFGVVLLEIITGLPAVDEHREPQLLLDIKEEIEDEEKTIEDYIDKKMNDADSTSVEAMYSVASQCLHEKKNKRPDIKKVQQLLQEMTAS
PIM-1, sequence (P11309 whole entry): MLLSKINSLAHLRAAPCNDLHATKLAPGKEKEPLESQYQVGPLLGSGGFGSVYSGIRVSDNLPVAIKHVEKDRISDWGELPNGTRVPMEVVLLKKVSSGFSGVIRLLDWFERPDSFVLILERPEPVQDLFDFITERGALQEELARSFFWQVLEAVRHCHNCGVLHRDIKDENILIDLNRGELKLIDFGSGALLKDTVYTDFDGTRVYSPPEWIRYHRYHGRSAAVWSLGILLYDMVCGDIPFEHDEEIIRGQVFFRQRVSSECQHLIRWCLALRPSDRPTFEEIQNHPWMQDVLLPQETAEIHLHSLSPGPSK

COc1ccc(-c2cnc(-c3ccncc3-c3cccc(OC)c3)o2)cc1 [DPC046]
IC50 (A549; Table 1): 0.022 µM | IC50 (A549; Table 2): 0.022 µM | inhibition of TrkB (TrkB [1]; [7]): more than 70% | inhibition of TrkB (TrkB [1]; [8]): 98% | IC50 (H460; Table 1): 0.025 µM | IC50 (H460; Table 2): 0.025 µM | IC50 (Caki-1): 0.013 µM | loss of parent compound ([2]; 2 years of storage at 22° C. in light): 43.6% | loss of parent compound ([2]; 2 years of storage at −20° C. in the dark): 8.6% | inhibition of TrkB (TrkB [3]): 55% | IC50 (A498): 0.014 µM | IC50 (MDA231): 0.017 µM | IC50 (PC3; Table 1): 0.0065 µM | IC50 (PC3; Table 2): 0.0065 µM | IC50 (SK-OV-3): 0.017 µM | IC50 (OVCAR3): 0.013 µM | mechanism of cell death (in words) (BxPC3 DPC-4(−/−) cells [4]; listed as (D)PC-046): both early apoptotic and necrotic cell death | mechanism of cell death (in words) (BxPC3 DPC-4(−/−) cells [4]; listed as DPC-046): cell death by a combination of apoptosis and necrosis | inhibition of PIM-1 (PIM-1): 50% | bound to plasma proteins [5]: 85% | inhibition of IRAK-4 (IRAK-4; [7]): more than 70% | inhibition of IRAK-4 (IRAK-4; [8]): 92% | effect on cell cycle phases (in words) (BxPC3 DPC-4(−/−) cells [6]; listed as (D)PC-046): block in the S and G2/M-phases | effect on cell cycle phases (in words) (BxPC3 DPC-4(−/−) cells [6]; listed as DPC-046): reduction in the percentage of G0/G1-phase cells and a commensurate increase in G2/M-phase cells
